Converted amounts (≈) assume the structure as drawn. Like-named read-outs stand apart in the source and are kept apart here.

Data set [1] deals with P. aeruginosa ATCC 27853. The experiment in a line: Broth microdilution MIC, P. aeruginosa ATCC 27853. The data set is classed as cell-based. The following applies: Pseudomonas aeruginosa, ATCC27853, P. aeruginosa ATCC 27853, read-out: Minimum inhibitory concentrations. From the text: (§1) Cefiderocol, a siderophore cephalosporin, was used as a positive control. Compound 18a was only tested on E. coli in both media conditions. Iron-depleted conditions were used to determine the effects of the attached siderophore mimics on antibacterial activities, since bacteria under low iron conditions produce and secrete siderophores to take up iron from the extracellular environment.[32] […] We have previously observed that our benzothiazole GyrB/ParE inhibitors are strongly effluxed from the G− bacterial cells and that this effect is especially pronounced in E. coli.[14] Therefore, compounds 10, 12, and 18b were also tested against E. coli JW5503, which is a tolC deletion mutant strain with a defective efflux pump.
(§2) The single-gene knock-out mutant strain of E. coli JW5503 (tolC knock-out) was obtained from the E. coli collection of the National BioResource Project at the National Institute of Genetics (Japan).[45] To determine the antibacterial activities, broth microdilution assays were carried out in 96-well plates following the Clinical and Laboratory Standards Institute guidelines.[46] Compounds were prepared as 100% DMSO stock solutions. The final concentration of DMSO was 1% and had no effect on the growth of bacteria. Preliminary screening was performed at 50 μM, and growth inhibition was measured after 24 h incubation at 37 °C. For compounds displaying >90% growth inhibition in the preliminary assay, MIC values were determined in dose–response assays (from at least two independent experiments, each with three replicates per concentration). Cation-adjusted Mueller-Hinton broth (CAMHB, BD) was used in all assays. CAMHB was prepared according to manufacturer's instructions and iron-depleted CAMHB (ID-CAMHB) according to CLSI guidelines. ID-CAMHB was used in order to mimic the conditions faced by bacteria during human infections, and induces the ferric iron transport. ID-CAMHB was prepared by adding 100 g of Chelex 100 resin (Bio-Rad) to 1 L of autoclaved CAMHB and stirred for 2 h at room temperature, in order to remove cations from the medium. Then, broth was filtered using a 0.2 μm filter to remove the resin and pH adjusted to 7.3 using 5 M hydrochloric acid. ID-CAMHB was then supplemented with calcium (CaCl2), magnesium (MgCl2) and zinc (ZnSO4) to final concentrations of 22.5 μg mL^−1, 11.25 μg mL^−1 and 0.56 μg mL^−1, respectively, and filtered again. To evaluate the effect of iron concentration on antibacterial effect of compounds, an appropriate amount of iron(III) chloride was added to ID-CAMHB, and this supplemented media was used as control CAMHB. The iron concentration in CAMHB and ID-CAMHB were approximately 0.2 mg L^−1 and ≤0.03 mg L^−1, respectively. Cefiderocol, a positive control, MICs were determined against E. coli, P. aeruginosa and A. baumannii, and used as positive control in the assays. Cefiderocol was purchased from MedChemExpress Europe.

Data set [2] addresses T1, E. coli topoisomerase IV (Escherichia coli, UniProt P20083). The experiment in a line: E. coli topoisomerase IV relaxation assay. As to conditions: average of three independent measurements. The class given is biochemical. From the text: (§3) All final compounds were first tested for their inhibitory activity in the E. coli DNA gyrase supercoiling assay and the E. coli topoisomerase IV relaxation assay (Table 1). […] These observations were confirmed with compounds 18a and 18b, which carried the siderophore mimic at position 4. […] With compounds 18a and 18b, we confirmed our hypothesis that it is possible to maintain potent enzyme inhibition after introduction of the siderophore mimic into the structure of the GyrB/ParE inhibitor.
(§4) The assays for determination of IC50 against E. coli DNA gyrase and topoisomerase IV were performed according to previously reported procedures.[23] IC50 values were determined with seven concentrations of the inhibitors. […] IC50 values were determined in three independent measurements, and their average value is given as a final result.

Data set [3] deals with wild type G− E. coli, P. aeruginosa and A. baumannii. Briefly: Antibacterial activity against wild type G− bacteria (screen at 50 μM). The data set is classed as cell-based.
Source text: as §1
as §2, with “The iron concentration in CAMHB and ID-CAMHB were approximately 0.2 mg L^−1 and ≤0.03 mg L^−1, respectively.” left out, “Cefiderocol was purchased from MedChemExpress Europe.” left out

For data set [4], the target named is E. coli DNA gyrase (Escherichia coli, UniProt P0AES6). The experiment in a line: E. coli DNA gyrase supercoiling assay. The following applies: for IC50: supercoiling assay, average of three independent measurements. The class given is biochemical.
Source text: as §3, §4

In data set [5] the test system is E. coli JW5503. The experiment in a line: Broth microdilution MIC, efflux-defective E. coli JW5503 (tolC deletion mutant). The class given is cell-based, Escherichia coli. The following applies: for MIC: Escherichia coli; for improvement of antibacterial activity in iron-depleted medium: iron-depleted vs iron-supplemented medium, E. coli JW5503.
Source text: as §1, §2
On the technique in general: Broth dilution looks for growth in wells or tubes with falling amounts of substance.

Data set [6] relates to E. coli ATCC 25922. The experiment in a line: Broth microdilution MIC, E. coli ATCC 25922. The data set is classed as cell-based, Escherichia coli.
Source text: as §1, §2

Data set [7] relates to A. baumannii ATCC 19606. Briefly: Broth microdilution MIC, A. baumannii ATCC 19606. The data set is classed as cell-based. As to conditions: Acinetobacter baumannii, ATCC19606, A. baumannii ATCC 19606, read-out: Minimum inhibitory concentrations.
Source text: as §1, §2

Data set [8] concerns the target T1, E. coli topoisomerase IV. Also on record: method as in PMID 33017402, PMID 33524686, PMID 36634346, PMID 36877255. The following applies: parent inhibitors; cited from earlier work.
Setting [9] is: JW5503, read-out: Minimum inhibitory concentrations, E. coli JW5503, +Fe: CAMHB + Fe.
The mark [10] stands for this setting: JW5503, read-out: Minimum inhibitory concentrations, E. coli JW5503, −Fe: ID-CAMHB.
The mark [11] stands for this setting: E. coli ATCC 25922, +Fe: CAMHB + Fe, read-out: Minimum inhibitory concentrations.
Setting [12] is: Escherichia coli, ATCC25922, read-out: Minimum inhibitory concentrations.

T1 sequence (P0AFI2 whole entry): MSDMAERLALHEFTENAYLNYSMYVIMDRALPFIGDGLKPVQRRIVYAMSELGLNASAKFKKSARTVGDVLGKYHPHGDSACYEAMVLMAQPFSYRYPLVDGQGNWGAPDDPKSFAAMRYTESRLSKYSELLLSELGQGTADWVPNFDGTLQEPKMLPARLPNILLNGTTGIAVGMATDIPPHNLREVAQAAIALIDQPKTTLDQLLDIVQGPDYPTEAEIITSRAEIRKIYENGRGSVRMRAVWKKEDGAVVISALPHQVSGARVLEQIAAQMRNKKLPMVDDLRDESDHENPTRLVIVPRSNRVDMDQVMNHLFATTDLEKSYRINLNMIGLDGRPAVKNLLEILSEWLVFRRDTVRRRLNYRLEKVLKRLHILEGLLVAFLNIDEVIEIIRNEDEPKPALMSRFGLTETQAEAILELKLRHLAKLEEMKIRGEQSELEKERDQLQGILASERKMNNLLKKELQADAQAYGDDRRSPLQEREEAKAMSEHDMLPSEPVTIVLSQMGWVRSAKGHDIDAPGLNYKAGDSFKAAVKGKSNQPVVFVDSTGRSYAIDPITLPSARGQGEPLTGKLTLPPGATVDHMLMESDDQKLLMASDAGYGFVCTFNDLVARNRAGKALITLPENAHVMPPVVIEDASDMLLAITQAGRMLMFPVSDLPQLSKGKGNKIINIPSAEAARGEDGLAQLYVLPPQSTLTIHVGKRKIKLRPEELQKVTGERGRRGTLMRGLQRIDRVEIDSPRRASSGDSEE
T1 sequence (P20083 whole entry): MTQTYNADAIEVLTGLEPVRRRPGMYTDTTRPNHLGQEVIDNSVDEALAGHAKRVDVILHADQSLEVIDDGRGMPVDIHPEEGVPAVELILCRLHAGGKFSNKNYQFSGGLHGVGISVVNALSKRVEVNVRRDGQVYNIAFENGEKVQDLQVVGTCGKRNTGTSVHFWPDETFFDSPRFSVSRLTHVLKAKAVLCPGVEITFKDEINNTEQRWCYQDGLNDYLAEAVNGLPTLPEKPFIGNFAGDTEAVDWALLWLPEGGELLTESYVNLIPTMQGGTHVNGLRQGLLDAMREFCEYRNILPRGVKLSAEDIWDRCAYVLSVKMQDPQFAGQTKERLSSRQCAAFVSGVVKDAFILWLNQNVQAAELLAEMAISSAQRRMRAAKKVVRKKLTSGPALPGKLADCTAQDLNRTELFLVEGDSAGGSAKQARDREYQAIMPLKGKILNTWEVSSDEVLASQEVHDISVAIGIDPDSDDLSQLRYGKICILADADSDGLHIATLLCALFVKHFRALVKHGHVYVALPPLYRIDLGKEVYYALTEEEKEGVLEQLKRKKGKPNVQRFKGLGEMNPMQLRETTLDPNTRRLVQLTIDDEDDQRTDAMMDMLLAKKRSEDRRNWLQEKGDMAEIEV

What is called melting point is the temperature of the solid-liquid transition. As usually defined, the IC50 is the concentration that gives 50% inhibition. `O=C(NCc1cc(=O)c(O)c[nH]1)c1ccc2nc(NC(=O)c3cc(Br)c(Br)[nH]3)sc2c1` [Compound 12, 2-(4,5-Dibromo-1H-pyrrole-2-carboxamido)-N-((5-hydroxy-4-oxo-1,4-dihydropyridin-2-yl)methyl)benzo[d]thiazole-6-carboxamide] registered a melting point greater than 300 °C. The MIC in data set [1] (+Fe: CAMHB + Fe) is greater than 50 µM. In addition, the MIC in data set [1] (−Fe: ID-CAMHB) was greater than 50 µM. The same compound came in with a 50% inhibitory concentration (IC50) in [2] greater than 10000 nM. The MIC in data set [3] was greater than 50 µM. Besides, in [4], the “IC50 E. coli DNA gyrase (range in words)” value is “low micromolar range” and the IC50 is 1700 ± 360 nM. Also, in data set [5] (setting [9]), the MIC was greater than 50 µM. Further, in data set [5] (setting [10]), the MIC was greater than 50 µM. Moreover, in data set [6] (setting [11]), the MIC is greater than 50 µM. Further, the MIC in [6] (setting [12]) was greater than 50 µM. In addition, the MIC in data set [7] (+Fe: CAMHB + Fe) was greater than 50 µM. In [7] (−Fe: ID-CAMHB), the MIC was greater than 50 µM.

For the compound `Cc1[nH]c(C(=O)Nc2nc3c(OCc4cc(=O)c(O)c[nH]4)cc(C(=O)O)cc3s2)c(Cl)c1Cl` [Compound 18b, 2-(3,4-Dichloro-5-methyl-1H-pyrrole-2-carboxamido)-4-((5-hydroxy-4-oxo-1,4-dihydropyridin-2-yl)methoxy)benzo[d]thiazole-6-carboxylic acid], the melting point is greater than 300 °C. Further, the MIC in data set [1] (+Fe: CAMHB + Fe) was greater than 50 µM. Further, the MIC in data set [1] (−Fe: ID-CAMHB) was greater than 50 µM. In data set [2], this compound came in with an IC50 of 430 ± 20 nM. Moreover, the MIC in data set [3] is greater than 50 µM. In data set [4], the “IC50 E. coli DNA gyrase (range in words)” value is listed as “low nanomolar range” and the IC50 was found to be 22 ± 6 nM. The compound further registered an MIC in data set [5] (JW5503, E. coli JW5503, iron-depleted conditions) of 6.37 µg/mL. The compound also came in with an MIC in data set [5] (JW5503, E. coli JW5503, iron-supplemented conditions) of 12.7 µg/mL. The MIC in data set [5] (setting [9]) turned out to be 25 µM. In addition, the MIC in data set [5] (setting [10]) was found to be 12.5 µM. In addition, the “improvement of antibacterial activity in iron-depleted medium” value in data set [5] was “twofold”. Besides, the MIC in data set [6] (setting [11]) is given as greater than 50 µM. Besides, the MIC in data set [6] (setting [12]) is greater than 50 µM. Moreover, the MIC in [7] (+Fe: CAMHB + Fe) is greater than 50 µM. The MIC in [7] (−Fe: ID-CAMHB) was greater than 50 µM.

With `O=C(O)c1cc(OCc2cc(=O)c(O)c[nH]2)c2nc(NC(=O)c3cc(Br)c(Br)[nH]3)sc2c1` [Compound 18a, 2-(4,5-Dibromo-1H-pyrrole-2-carboxamido)-4-((5-hydroxy-4-oxo-1,4-dihydropyridin-2-yl)methoxy)benzo[d]thiazole-6-carboxylic acid], the IC50 stood at 1280 ± 820 nM in [2] and 12 ± 5 nM in data set [4]. The MIC in [3] (iron-supplemented and iron-depleted media, indicated by weak activity at 50 μM, read-out: MIC) was greater than 50 µM; in data set [6] (setting [11]) it was greater than 50 µM; in data set [6] (Escherichia coli, ATCC25922, E. coli ATCC 25922, −Fe: iron depleted CAMHB (ID-CAMHB), read-out: Minimum inhibitory concentrations), greater than 50 µM. Also, the “IC50 E. coli DNA gyrase (range in words)” value in [4] was “low nanomolar range”.

As for `O=C(NCc1cc(=O)c(O)co1)c1ccc2nc(NC(=O)c3cc(Br)c(Br)[nH]3)sc2c1` [Compound 10, 2-(4,5-Dibromo-1H-pyrrole-2-carboxamido)-N-((5-hydroxy-4-oxo-4H-pyran-2-yl)methyl)benzo[d]thiazole-6-carboxamide], the melting point is greater than 300 °C. Also, in data set [1] (+Fe: CAMHB + Fe), the MIC is greater than 50 µM. The MIC in data set [1] (−Fe: ID-CAMHB) was greater than 50 µM. In addition, the IC50 in [2] was greater than 10000 nM. The compound further gave an MIC in data set [3] greater than 50 µM. Also, in data set [4], the “IC50 E. coli DNA gyrase (range in words)” value was “low micromolar range” and the IC50 was 1420 ± 180 nM. The MIC in [5] (setting [9]) is greater than 50 µM. For the same compound, the MIC in data set [5] (setting [10]) was greater than 50 µM. For the same compound, the MIC in [6] (setting [11]) is reported as greater than 50 µM. Moreover, in data set [6] (setting [12]), the MIC is greater than 50 µM. The MIC in [7] (+Fe: CAMHB + Fe) is greater than 50 µM. Moreover, the MIC in [7] (−Fe: ID-CAMHB) was greater than 50 µM.

Take `CC(C)(O/N=C(\C(=O)N[C@@H]1C(=O)N2C(C(=O)[O-])=C(C[N+]3(CCNC(=O)c4ccc(O)c(O)c4Cl)CCCC3)CS[C@H]12)c1csc(N)n1)C(=O)O` [Cefiderocol, reference compound]: the MIC in data set [1] (+Fe: CAMHB + Fe) turned out to be 1 µM; in data set [1] (−Fe: ID-CAMHB), 0.25 µM (≈ 0.188 µg/mL); in [5] (setting [9]), 0.125 µM; in data set [5] (setting [10]), 0.0625 µM; in [6] (setting [11]) it was 0.25 µM; in [6] (setting [12]), 0.25 µM (≈ 0.188 µg/mL). The MIC was 2 µM in [7] (+Fe: CAMHB + Fe) and 0.25 µM (≈ 0.188 µg/mL) in [7] (−Fe: ID-CAMHB). The “improvement of antibacterial activity in iron-depleted medium” value in [5] was “twofold”.

For the compound `Cc1[nH]c(C(=O)Nc2nc3ccc(C(=O)O)cc3s2)c(Cl)c1Cl` [A], the IC50 in data set [8] is 500 ± 280 nM.

Source of the values: article PMC10794952, “Benzothiazole DNA gyrase inhibitors and their conjugates with siderophore mimics: design, synthesis and evaluation” (RSC Advances, 2024).
